In series [1] the test system is PD1-ss+10aa/Gaussia Luciferase. The series can be described thus: Dox-Induced PD1-ss-Gluc Assay. Particulars: Flp-In 293 T-REx cells, 24 hours with doxycycline; Table 1; read-out: 24 hr Dox Inducible PD1ssGluc 293FRT/TO: Mean IC50. The series is classed as cell-based. The essentials: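 Compounds were added in DMSO/media with doxycycline and incubated at 37 °C, 5% CO2, on 293 T-REx cells plated one day earlier. These cells stably express, under tetracycline-regulated control, a Gaussia luciferase fused to the PD1 signal peptide plus 10 residues. Structures drawn without stereochemistry were tested as stereoisomer mixtures.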

Series [2] relates to IL-2-FL/Gaussia Luciferase. Briefly: Dox Inducible IL2-FL-Gluc Assay. Type of series: cell-based. The settings on record: Table 1; for IC50: Flp-In 293 T-REx cells, 24 hours with doxycycline, read-out: 24 hr Dox Inducible IL2FLGluc 293FRT/TO: Mean IC50; for 24 hr Dox Inducible IL2FLGluc 293FRT/TO: IL2/PD1: ratio of IC50s IL2/PD1. In a few lines: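 Doxycycline induces an IL-2(1-153)–Gaussia luciferase fusion in a stable Flp-In 293 T-REx line. Compound exposure runs alongside induction at 37° C.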

The next series concerns CD47(ss + 10)Gluc. The series can be described thus: Dox-Induced CD47-ss-Gluc Assay. The series is classed as cell-based. The settings on record: Flp-In 293 T-REx cells, 24 hours with doxycycline; Table 1; read-out: 24 hr Dox Inducible CD47(ss + 10)Gluc 293FRT/TO: Mean IC50.
Series [3] deals with IL6R-ss+10aa/Gaussia Luciferase. Briefly: Dox-induced IL-6R-ss-Gluc Assay. The series is classed as cell-based. The settings on record: Table 1; for IC50: Flp-In 293 T-REx cells, 24 hours with doxycycline, read-out: 24hr Dox Inducible IL6R(ss + 10)Gluc 293FRT/TO: Mean IC50; for 24hr Dox Inducible IL6R(ss + 10)Gluc 293FRT/TO: IL6R/PD1: ratio of IC50s IL6R/PD1. In a few lines: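 Flp-In 293 T-REx cells stably carrying a doxycycline-inducible IL6R signal sequence+10 aa fused to Gaussia luciferase. Cells plated the day before; compound dilutions added in DMSO/media containing doxycycline and incubated at 37 °C, 5% CO2.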

The subject of series [4] is multiple myeloma cell line NCI-H929. Briefly: H929 Cell Viability Assay. Particulars: NCI-H929 cells, 48 hours, Celltiter-Glo; for EC50: Homo sapiens, read-out: 48 hr H929 Viability Celltiter-Glo: Mean EC50. Type of series: cell-based, human. The essentials:
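Viability is scored by CellTiter-Glo luminescence following a 48-hour treatment at 37° C. Data for structures shown without stereochemistry refer to stereoisomer mixtures.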
(In general: Cellular ATP, detected with luciferase, serves as a proxy for viable cell number.)

Series [5] relates to multiple myeloma cell line U266B1. Briefly: U266 Cell Viability Assay. The series is classed as cell-based. The settings on record: Homo sapiens, U-266; U266B1 cells, 48 hours, Celltiter-Glo; read-out: 48 hr U266 Viability Celltiter-Glo: Mean EC50. In a few lines: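 Viability is measured as luciferase signal from CellTiter-Glo following a 48-hour incubation with compound at 37° C. under 5% CO2. Where structures lack drawn stereochemistry, values refer to stereoisomer mixtures.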

The nature of series [6]: Liver Microsome Stability Assay, mouse. The series is classed as in vitro ADME. Particulars: mouse liver microsomes 1.0 mg/mL, 1.0 uM compound, 37° C., 1 mM NADPH. The essentials: (§1)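 Incubations at 37° C contain 1.0 mg/mL liver microsomes and 1.0 uM compound, with 1 mM NADPH present or absent. Time points are 0 and 30 minutes.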
On the technique in general: Liver microsomes are a subcellular fraction often used to study metabolism.

Series [7] is described as follows: Liver Microsome Stability Assay, rat. The series is classed as in vitro ADME. The settings on record: rat liver microsomes 1.0 mg/mL, 1.0 uM compound, 37° C., 1 mM NADPH. In a few lines: as §1
Series [8] in a line: Liver Microsome Stability Assay, monkey. The series is classed as in vitro ADME. The settings on record: monkey liver microsomes 1.0 mg/mL, 1.0 uM compound, 37° C., 1 mM NADPH. In a few lines:
as §1

Series [9] is described as follows: Liver Microsome Stability Assay, human. The settings on record: human liver microsomes 1.0 mg/mL, 1.0 uM compound, 37° C., 1 mM NADPH. The series is classed as in vitro ADME. The essentials:
as §1

Turning to `CCOc1cc(C(=O)Nc2nc(/C=C/c3ncn(C4CC4)c3Cl)cs2)n(Cc2ccnc(F)c2)c1` [Compound A17, (E)-N-(4-(2-(5-chloro-1-cyclopropyl-1H-imidazol-4-yl)vinyl)thiazol-2-yl)-4-ethoxy-1-((2-fluoropyridin-4-yl)methyl)-1H-pyrrole-2-carboxamide], the IC50 stood at 0.009 µM in series [1], 3.02 µM in series [2], 2.74 µM with CD47(ss + 10)Gluc and 2.1 µM in [3]. Besides, in series [2], the “24 hr Dox Inducible IL2FLGluc 293FRT/TO: IL2/PD1” value came to 340. Also, the “24hr Dox Inducible IL6R(ss + 10)Gluc 293FRT/TO: IL6R/PD1” value in series [3] is reported as 240. Moreover, the “48 hr H929 Viability Celltiter-Glo: Mean EC50 (nM)” value in [4] is listed as “I.A”. Further, the concentration for a half-maximal effect (EC50) in [5] is over 25 µM. The “Liver Microsome Stability (Multiple Species): Mouse - % Remaining after 30 min w/ NADPH (%)” value in series [6] worked out at 72%. For the same compound, in [7], the “Liver Microsome Stability (Multiple Species): Rat - % Remaining after 30 min w/ NADPH (%)” value is 2%. In addition, in series [8], the “Liver Microsome Stability (Multiple Species): Monkey - % Remaining after 30 min w/ NADPH (%)” value came out at 17%. For the same compound, the “Liver Microsome Stability (Multiple Species): Human - % Remaining after 30 min w/ NADPH (%)” value in series [9] is 26%.
`O=C(Nc1nc(/C=C/c2ncn(C3CC3)c2Cl)cs1)c1cc(O)cn1Cc1ccnc(F)c1` [Compound A18, (E)-N-(4-(2-(5-chloro-1-cyclopropyl-1H-imidazol-4-yl)vinyl)thiazol-2-yl)-1-((2-fluoropyridin-4-yl)methyl)-4-hydroxy-1H-pyrrole-2-carboxamide]: the IC50 came to 0.295 µM in series [1], 7 µM in series [2], 6.41 µM with CD47(ss + 10)Gluc and 5.53 µM in series [3]. Besides, in series [2], the “24 hr Dox Inducible IL2FLGluc 293FRT/TO: IL2/PD1” value is listed as 24. Moreover, the “24hr Dox Inducible IL6R(ss + 10)Gluc 293FRT/TO: IL6R/PD1” value in [3] is 19. For the same compound, the EC50 in series [4] was 24.7 µM; in series [5] it was over 25 µM. In addition, the “Liver Microsome Stability (Multiple Species): Mouse - % Remaining after 30 min w/ NADPH (%)” value in [6] was found to be 33%. Also, the “Liver Microsome Stability (Multiple Species): Rat - % Remaining after 30 min w/ NADPH (%)” value in series [7] is 10%. Moreover, in [8], the “Liver Microsome Stability (Multiple Species): Monkey - % Remaining after 30 min w/ NADPH (%)” value is 2%. The “Liver Microsome Stability (Multiple Species): Human - % Remaining after 30 min w/ NADPH (%)” value in series [9] is recorded as 1%.
Consider `O=C(Nc1nc(/C=C/c2ncn(C3CC3)c2Cl)cs1)c1cc(OCF)cn1Cc1ccnc(F)c1` [Compound A19, (E)-N-(4-(2-(5-chloro-1-cyclopropyl-1H-imidazol-4-yl)vinyl)thiazol-2-yl)-4-(fluoromethoxy)-1-((2-fluoropyridin-4-yl)methyl)-1H-pyrrole-2-carboxamide], for which the IC50 came to 0.01 µM in [1], 3.66 µM in series [2], 4.35 µM in the series on CD47(ss + 10)Gluc and 2.91 µM in series [3]. Besides, the “24 hr Dox Inducible IL2FLGluc 293FRT/TO: IL2/PD1” value in [2] turned out to be 360. The “24hr Dox Inducible IL6R(ss + 10)Gluc 293FRT/TO: IL6R/PD1” value in series [3] is listed as 287. The 50% effective concentration (EC50) in [4] and in series [5] was over 25 µM throughout. Besides, the “Liver Microsome Stability (Multiple Species): Mouse - % Remaining after 30 min w/ NADPH (%)” value in [6] is 65%. The “Liver Microsome Stability (Multiple Species): Rat - % Remaining after 30 min w/ NADPH (%)” value in [7] came out at 23%. In addition, the “Liver Microsome Stability (Multiple Species): Monkey - % Remaining after 30 min w/ NADPH (%)” value in series [8] came out at 51%. In addition, the “Liver Microsome Stability (Multiple Species): Human - % Remaining after 30 min w/ NADPH (%)” value in series [9] came to 4%.
For `COc1cc(C(=O)Nc2nc(/C=C/c3ncn(C4CC4)c3Cl)cs2)n(Cc2ccnc(F)c2F)c1` [Compound A20], the IC50 in series [1] is 0.031 µM; in series [2], over 25 µM; with CD47(ss + 10)Gluc, 5.01 µM; in series [3], 3.76 µM. In addition, the “24 hr Dox Inducible IL2FLGluc 293FRT/TO: IL2/PD1” value in [2] is listed as over 810. In addition, the “24hr Dox Inducible IL6R(ss + 10)Gluc 293FRT/TO: IL6R/PD1” value in [3] is on record as 123. The concentration for a half-maximal effect (EC50) in [4] and in series [5] was over 25 µM in each case. The “Liver Microsome Stability (Multiple Species): Mouse - % Remaining after 30 min w/ NADPH (%)” value in series [6] is on record as 74%. Moreover, in series [7], the “Liver Microsome Stability (Multiple Species): Rat - % Remaining after 30 min w/ NADPH (%)” value turned out to be 41%. The “Liver Microsome Stability (Multiple Species): Monkey - % Remaining after 30 min w/ NADPH (%)” value in series [8] came out at 28%. Further, the “Liver Microsome Stability (Multiple Species): Human - % Remaining after 30 min w/ NADPH (%)” value in [9] came out at 52%.
Take `COc1cc(C(=O)Nc2nc(/C=C/c3ncn(C(C)C)c3Cl)c(CO)s2)n(Cc2ccnc(F)c2F)c1` [Compound A21]: the IC50 in series [1] is 0.238 µM; in series [2], over 25 µM; with CD47(ss + 10)Gluc, 5.87 µM; in series [3], over 25 µM. In addition, the “24 hr Dox Inducible IL2FLGluc 293FRT/TO: IL2/PD1” value in [2] is given as over 110. In addition, in series [3], the “24hr Dox Inducible IL6R(ss + 10)Gluc 293FRT/TO: IL6R/PD1” value is recorded as over 105. Also, the 50% effective concentration (EC50) in series [4] and in [5] was over 25 µM each time. In addition, the “Liver Microsome Stability (Multiple Species): Mouse - % Remaining after 30 min w/ NADPH (%)” value in series [6] was 51%. For the same compound, in series [7], the “Liver Microsome Stability (Multiple Species): Rat - % Remaining after 30 min w/ NADPH (%)” value turned out to be 59%. For the same compound, the “Liver Microsome Stability (Multiple Species): Monkey - % Remaining after 30 min w/ NADPH (%)” value in [8] is listed as under 1%. Besides, in series [9], the “Liver Microsome Stability (Multiple Species): Human - % Remaining after 30 min w/ NADPH (%)” value came out at 1%.
Consider `[2H]C([2H])([2H])Oc1cc(C(=O)Nc2nc(/C=C/c3ncn(C4CC4)c3Cl)cs2)n(Cc2ccnc(F)c2F)c1` [Compound A22, (E)-N-(4-(2-(5-chloro-1-cyclopropyl-1H-imidazol-4-yl)vinyl)thiazol-2-yl)-1-((2,3-difluoropyridin-4-yl)methyl)-4-(methoxy-d3)-1H-pyrrole-2-carboxamide], for which the IC50 is 0.034 µM in series [1], over 25 µM in series [2], 5.53 µM in the series with CD47(ss + 10)Gluc and over 25 µM in [3]. For the same compound, in series [2], the “24 hr Dox Inducible IL2FLGluc 293FRT/TO: IL2/PD1” value is reported as over 740. Further, in series [3], the “24hr Dox Inducible IL6R(ss + 10)Gluc 293FRT/TO: IL6R/PD1” value was over 741. In addition, the EC50 in [4] and in [5] was over 25 µM each time. Besides, in series [6], the “Liver Microsome Stability (Multiple Species): Mouse - % Remaining after 30 min w/ NADPH (%)” value is 69%. Besides, in series [7], the “Liver Microsome Stability (Multiple Species): Rat - % Remaining after 30 min w/ NADPH (%)” value amounted to 33%. Also, in [8], the “Liver Microsome Stability (Multiple Species): Monkey - % Remaining after 30 min w/ NADPH (%)” value is listed as 9%. In series [9], the “Liver Microsome Stability (Multiple Species): Human - % Remaining after 30 min w/ NADPH (%)” value is reported as 16%.
For `Cc1c(Cn2cc(OC(F)F)cc2C(=O)Nc2nc(/C=C/c3ncn(C4CC4)c3Cl)cs2)ccnc1F` [Compound A23, (E)-N-(4-(2-(5-chloro-1-cyclopropyl-1H-imidazol-4-yl)vinyl)thiazol-2-yl)-4-(difluoromethoxy)-1-((2-fluoro-3-methylpyridin-4-yl)methyl)-1H-pyrrole-2-carboxamide], the IC50 is 0.037 µM in [1], over 25 µM in [2], over 25 µM in the series on CD47(ss + 10)Gluc and over 25 µM in series [3]. In addition, the “24 hr Dox Inducible IL2FLGluc 293FRT/TO: IL2/PD1” value in [2] is over 540. The “24hr Dox Inducible IL6R(ss + 10)Gluc 293FRT/TO: IL6R/PD1” value in series [3] is given as over 680. Further, the EC50 in series [4] and in series [5] was over 25 µM throughout. In addition, the “Liver Microsome Stability (Multiple Species): Mouse - % Remaining after 30 min w/ NADPH (%)” value in series [6] worked out at 55%. Moreover, in [7], the “Liver Microsome Stability (Multiple Species): Rat - % Remaining after 30 min w/ NADPH (%)” value was determined as 31%. The “Liver Microsome Stability (Multiple Species): Monkey - % Remaining after 30 min w/ NADPH (%)” value in series [8] is 8%. For the same compound, the “Liver Microsome Stability (Multiple Species): Human - % Remaining after 30 min w/ NADPH (%)” value in series [9] turned out to be 20%.

Broadly, the EC50 is the concentration giving half of the maximal effect.
